Reference: US6534546B1 (Chugai Seiyaku Kabushiki Kaisha, priority 1994, dated 2003)
Structures can show the parent of a compound that is named as a salt.

Each compound was assayed against T1, E-cNOS (Type 3) (Bos taurus, UniProt P29473) (assay: biochemical). Conditions: not given.
T1 construct: the resulting supernatant was used as the crude enzyme sample of E-cNOS; endogenous in cells; host or cells: CPAE (cow pulmonary arterial endothelium cells), 1% Triton X-100 extract, 100,000 x g supernatant
T1 sequence (P29473 2-1205): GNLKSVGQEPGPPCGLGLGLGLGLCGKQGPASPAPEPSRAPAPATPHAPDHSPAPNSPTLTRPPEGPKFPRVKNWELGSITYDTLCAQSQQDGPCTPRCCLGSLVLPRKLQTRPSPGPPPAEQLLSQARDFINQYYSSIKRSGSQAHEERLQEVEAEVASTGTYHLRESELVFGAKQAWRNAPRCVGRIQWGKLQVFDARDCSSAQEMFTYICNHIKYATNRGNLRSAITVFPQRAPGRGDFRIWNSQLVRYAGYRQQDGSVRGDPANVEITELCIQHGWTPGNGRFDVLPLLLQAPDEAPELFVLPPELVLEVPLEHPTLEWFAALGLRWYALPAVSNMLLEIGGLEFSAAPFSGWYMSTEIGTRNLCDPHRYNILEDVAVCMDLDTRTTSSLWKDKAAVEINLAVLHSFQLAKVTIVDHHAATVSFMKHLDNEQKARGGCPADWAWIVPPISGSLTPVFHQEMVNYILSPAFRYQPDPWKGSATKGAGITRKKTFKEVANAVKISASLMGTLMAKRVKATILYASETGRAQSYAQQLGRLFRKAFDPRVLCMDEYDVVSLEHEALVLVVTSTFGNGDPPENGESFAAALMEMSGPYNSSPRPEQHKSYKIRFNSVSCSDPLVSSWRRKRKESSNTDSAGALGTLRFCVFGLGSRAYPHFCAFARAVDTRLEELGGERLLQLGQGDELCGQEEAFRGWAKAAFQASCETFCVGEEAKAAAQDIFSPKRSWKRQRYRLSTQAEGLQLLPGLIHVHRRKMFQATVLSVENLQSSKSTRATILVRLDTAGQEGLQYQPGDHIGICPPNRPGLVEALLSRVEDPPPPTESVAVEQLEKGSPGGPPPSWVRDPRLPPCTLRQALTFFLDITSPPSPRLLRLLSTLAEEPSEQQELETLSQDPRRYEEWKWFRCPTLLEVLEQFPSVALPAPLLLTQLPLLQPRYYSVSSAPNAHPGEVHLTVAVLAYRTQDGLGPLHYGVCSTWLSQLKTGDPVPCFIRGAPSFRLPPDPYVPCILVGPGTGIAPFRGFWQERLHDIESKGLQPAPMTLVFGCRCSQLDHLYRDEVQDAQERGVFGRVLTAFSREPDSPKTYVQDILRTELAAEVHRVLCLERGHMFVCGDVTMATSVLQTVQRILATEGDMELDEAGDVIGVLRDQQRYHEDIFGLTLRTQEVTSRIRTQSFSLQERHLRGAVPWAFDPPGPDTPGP
In the case of `CSC(=N)Nc1cccc(C2(N)CCCCC2)c1` [Example 142, N-(1-(3-(S-methylisothioureido)phenyl)cyclohexyl)amine dihydrochloride], the IC50 is reported as 663 nM.
With `CCSC(=N)Nc1cccc(C2(N)CCCCC2)c1` [Example 144, N-(1-(3-(S-ethylisothioureido)phenyl)cyclohexyl)amine dihydrochloride] the IC50 was 898 nM.
Compound `NC(=N[N+](=O)[O-])Nc1cccc(C2(N)CCCCC2)c1` [Example 169, N-(1-(3-(N′-nitroguanidino)phenyl)cyclohexyl)amine hydrochloride] has an IC50 of 41.5 nM.
`CCSC(=N)Nc1ccc(CC(C)(C)N)cc1` [Example 193, N-(1,1-dimethyl-2-(4-(S-ethylisothioureido)phenyl)ethyl)amine dihydrochloride] gave an IC50 of 1540 nM.
`CCN=C(N)Nc1cccc(C2(N)CCCCC2)c1` [Example 234, N-(1-(3-(N′-ethylguanidino)phenyl)cyclohexyl)amine dihydrochloride] gave an IC50 of 1170 nM.
`CCN=C(N)Nc1ccc(CCN)c(F)c1` [Example 258, N-(2-(4-(N′-ethylguanidino)-2-fluorophenyl)ethyl)amine dihydrochloride] gave an IC50 of 1090 nM.
In the case of `CCSC(=N)Nc1ccc(CCN)c(OC)c1` [Example 482, N-(2-(4-(S-ethylisothioureido)-2-methoxyphenyl)ethyl)amine dihydrochloride], the IC50 is reported as 1990 nM.

Same assay, conditions: mean of one to four independent experiments; CPAE cell crude enzyme; read-out: IC50 value, E-cNOS (Type 3)
In the case of `CCSC(=N)Nc1ccc(C(C)(C)CN)cc1` [Example 185, N-(2-(4-(S-ethylisothioureido)phenyl)-2-methylpropyl)amine dihydrochloride], the IC50 is reported as 3170 nM.

Same assay, conditions: mean of one to four independent experiments; crude enzyme, 100 nM L-[3H]arginine; read-out: IC50 value, E-cNOS (Type 3)
Work on `CCSC(=N)Nc1cccc(CNC)c1` [Example 47, N-(3-(S-ethylisothioureido)phenylmethyl)methylamine dihydrochloride] yielded an IC50 of 72.9 nM.
`CCSC(=N)Nc1cccc(C(C)NC)c1` (centres unmarked) [Example 112, N-(1-(3-(S-ethylisothiourido)phenyl)ethyl)methylamine dihydrochloride] showed an IC50 of 408 nM.
`CCSC(=N)Nc1cccc(CN)c1Cl` [Example 137, N-(2-chloro-3-(S-ethylisothioureido)phenylmethyl)amine dihydrochloride] gave an IC50 of 485 nM.
In the case of `CSC(=N)Nc1cccc(C2(N)CCCC2)c1` [Example 151, N-(1-(3-(S-methylisothioureido)phenyl)cyclopentyl)amine dihydrochloride], the IC50 is reported as 262 nM.
`CCSC(=N)Nc1cccc(C2(N)CCCC2)c1` [Example 153, N-(1-(3-(S-ethylisothioureido)phenyl)cyclopentyl)amine dihydrochloride] showed an IC50 of 423 nM.
For `CSC(=N)Nc1cccc(C2(N)CCC2)c1` [Example 160, N-(1-(3-(S-methylisothioureido)phenyl)cyclobutyl)amine dihydrochloride], the IC50 was 477 nM.
`CCSC(=N)Nc1cccc(C2(N)CCC2)c1` [Example 162, N-(1-(3-(S-ethylisothioureido)phenyl)cyclobutyl)amine dihydrochloride] showed an IC50 of 576 nM.
In the case of `CCSC(=N)Nc1cccc(C2(N)CC2)c1` [Example 167, N-(1-(3-(S-ethylisothioureido)phenyl)cyclopropyl)amine dihydrochloride], the IC50 is reported as 366 nM.
`NC(=N[N+](=O)[O-])Nc1cccc(C2(N)CCCC2)c1` [Example 171, N-(1-(3-(N′-nitroguanidino)phenyl)cyclopentyl)amine hydrochloride] gave an IC50 of 29.2 nM.
For `N=C(Nc1cccc(C2(N)CCC2)c1)N[N+](=O)[O-]` [Example 173, N-(1-(3-(N′-nitroguanidino)phenyl)cyclobutyl)amine hydrochoride], the IC50 was 24.1 nM.
`CCSC(=N)Nc1cccc(C(C)N)c1` (centres unmarked) [Example 175, N-(1-(3-(S-ethylisothioureido)phenyl)ethyl)amine dihydrochloride] showed an IC50 of 200 nM.
For `CCSC(=N)Nc1cccc(C(N)CC)c1` (centres unmarked) [Example 177, N-(1-(3-(S-ethylisothioureido)phenyl)propyl)amine dihydrochloride], the IC50 was 510 nM.
In the case of `CCSC(=N)Nc1ccc(C(CN)C(=O)OC)cc1` (centres unmarked) [Example 226, 3-amino-2-(4-(S-ethylisothioureido)phenyl)propionic acid methyl ester dihydrochloride], the IC50 is reported as 1440 nM.
For `CCN=C(N)Nc1cccc(C2(N)CCCC2)c1` [Example 236, N-(1-(3-(N′-ethylguanidino)phenyl)cyclopentyl)amine dihydrochloride], the IC50 was 325 nM.
Work on `CCN=C(N)Nc1cccc(C2(N)CCC2)c1` [Example 238, N-(1-(3-(N′-ethylguanidino)phenyl)cyclobutyl)amine dihydrochloride] yielded an IC50 of 1160 nM.
`CN(C)c1ccc(NC(N)=N[N+](=O)[O-])cc1CN` [Example 281, N-(2-dimethylamino-5-(N′-nitroguanidino)phenylmethyl)amine dihydrochloride] was tested, and the IC50 was 1620 nM.
Compound `CCN=C(N)Nc1ccc(N(C)CC)c(CN)c1` [Example 285, N-(5-(N′-ethylguanidino)-2-(N-ethyl-N-methyl-amino)phenylmethyl)amine trihydrochloride] has an IC50 of 7310 nM.
`CCSC(=N)Nc1ccc(N(C)CC)c(CN)c1` [Example 288, N-(5-(S-ethylisothioureido)-2-(N-ethyl-N-methylamino)phenylmethyl)amine trihydrochloride] was tested, and the IC50 was 1260 nM.
With `CCSC(=N)Nc1ccc(OC)c(CN)c1OC` [Example 298, N-(2,6-dimethoxy-3-(S-ethylisothioureido)phenylmethyl)amine dihydrochloride] the IC50 was 4140 nM.
Work on `CCN=C(N)Nc1cccc(C(C)(C)N)c1` [Example 300, N-(1-(3-(N′-ethylguanidino)phenyl)-1-methylethyl) amine dihydrochloride] yielded an IC50 of 492 nM.
For `CCN(C)C(=N)Nc1cccc(CN)c1` [Example 305, N-(3-(N′-ethyl-N′-methylguanidino)phenylmethyl)amine dihydrochloride], the IC50 was 1710 nM.
`CCSC(=N)Nc1ccc(F)c(CN)c1` [Example 317, N-(5-(S-ethylisothioureido)-2-fluorophenylmethyl)amine dihydrochloride] gave an IC50 of 239 nM.
With `NCc1cc(NC(N)=N[N+](=O)[O-])ccc1OCc1ccccc1` [Example 341, N-(2-benzyloxy-5-(N′-nitroguanidino)phenylmethyl)amine hydrochloride] the IC50 was 874 nM.
`CCSC(=N)Nc1cccc(CNN)c1` [Example 355, 3-(S-ethylisothioureido)phenylmethylhydrazine trihydrochloride] was tested, and the IC50 was 662 nM.
`CN=C(N)Nc1cccc(CN)c1` [Example 367, N-(3-(N′-methylguanidino)phenylmethyl)amine dihydrochloride] gave an IC50 of 3710 nM.
Work on `CCSC(=N)Nc1cccc(CN(C)C)c1` [Example 372, N-(3-(S-ethylisothioureido)phenylmethyl)dimethylamine] yielded an IC50 of 360 nM.
For `CCN=C(N)Nc1cccc(CN(C)C)c1` [Example 374, N-(3-(N′-ethylguanidino)phenylmethyl)dimethylamine dihydrochloride], the IC50 was 1290 nM.
Work on `CCN=C(N)Nc1cccc(CNC)c1` [Example 376, N-(3-(N′-ethylguanidino)phenylmethyl)methylamine dihydrochloride] yielded an IC50 of 339 nM.
`CCSC(=N)Nc1cccc(CNC)c1C` [Example 411, N-(3-(S-ethylisothioureido)-2-methylphenylmethyl)methylamine dihydrochloride] gave an IC50 of 341 nM.
`CCSC(=N)Nc1ccc(NCc2ccccc2)c(CN)c1` [Example 438, N-(2-benzylamino-5-(S-ethylisothioureido)phenylmethyl)amine trihydrochloride] gave an IC50 of 6950 nM.
Compound `CCNc1ccc(NC(=N)SCC)cc1CN(C(=O)OC(C)(C)C)C(=O)OC(C)(C)C` [Example 458, N-(2-ethylamino-5-(S-ethylisothioureido)phenylmethyl)iminodicarboxylic acid di-t-butyl ester] has an IC50 of 4100 nM.
With `CCN=C(N)Nc1ccc(CCN)cc1` [Example 528, N-(2-(4-(N′-ethylguanidino)phenyl)ethyl)amine dihydrochloride] the IC50 was 436 nM.
Compound `CCN=C(N)Nc1cccc(CN)c1C` [Example 533, N-(3-(N′-ethylguanidino)-2-methylphenylmethyl)amine dihydrochloride] has an IC50 of 3770 nM.
Work on `CCN=C(N)Nc1cccc(CCN)c1` [Example 543, N-(3-(N′-ethylguanidino)phenylethyl)amine dihydrochloride] yielded an IC50 of 3120 nM.
In the case of `N=C(NCCC[C@H](N)C(=O)O)NC1CC1` [L-CPA, N^G-cyclpropyl-L-arginine, reference compound], the IC50 is reported as 987 nM.

The compounds below were run against iNOS (Type 2) (Rattus norvegicus, UniProt Q06518) (assay: biochemical). Conditions: conclusion from Tables 49, 50 and 51.
iNOS (Type 2), sequence (Q06518 whole entry, looked up): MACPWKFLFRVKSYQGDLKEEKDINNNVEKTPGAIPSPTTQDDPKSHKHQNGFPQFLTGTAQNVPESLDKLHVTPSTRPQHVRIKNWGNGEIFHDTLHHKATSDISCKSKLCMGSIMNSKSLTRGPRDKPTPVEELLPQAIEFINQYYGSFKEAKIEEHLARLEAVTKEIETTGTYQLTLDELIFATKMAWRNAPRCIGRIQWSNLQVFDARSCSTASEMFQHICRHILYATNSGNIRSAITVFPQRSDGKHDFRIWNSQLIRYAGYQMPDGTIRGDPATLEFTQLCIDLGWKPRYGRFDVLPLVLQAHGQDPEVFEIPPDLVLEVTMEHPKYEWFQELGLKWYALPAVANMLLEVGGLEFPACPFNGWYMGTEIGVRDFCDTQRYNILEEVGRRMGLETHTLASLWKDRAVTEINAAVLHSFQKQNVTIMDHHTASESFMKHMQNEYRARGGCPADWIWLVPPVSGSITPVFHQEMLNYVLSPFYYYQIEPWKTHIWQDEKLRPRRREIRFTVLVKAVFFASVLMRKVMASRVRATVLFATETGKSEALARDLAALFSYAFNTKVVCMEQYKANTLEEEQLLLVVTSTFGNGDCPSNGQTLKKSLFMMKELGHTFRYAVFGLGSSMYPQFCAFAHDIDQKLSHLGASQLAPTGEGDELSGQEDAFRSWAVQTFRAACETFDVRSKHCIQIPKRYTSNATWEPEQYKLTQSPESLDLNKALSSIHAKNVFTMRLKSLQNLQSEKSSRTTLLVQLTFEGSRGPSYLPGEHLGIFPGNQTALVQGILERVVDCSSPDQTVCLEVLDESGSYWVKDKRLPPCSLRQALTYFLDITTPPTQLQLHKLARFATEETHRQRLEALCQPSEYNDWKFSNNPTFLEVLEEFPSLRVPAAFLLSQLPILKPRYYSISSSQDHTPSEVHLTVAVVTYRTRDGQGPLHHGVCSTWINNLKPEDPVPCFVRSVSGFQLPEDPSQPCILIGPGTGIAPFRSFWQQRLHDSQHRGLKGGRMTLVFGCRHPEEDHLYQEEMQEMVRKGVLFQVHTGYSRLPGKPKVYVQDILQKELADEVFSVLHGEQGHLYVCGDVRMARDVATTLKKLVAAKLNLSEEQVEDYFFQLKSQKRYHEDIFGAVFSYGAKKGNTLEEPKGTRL
Format: biochemical
In the case of `CCSC(=N)Nc1cccc(CN)c1.Cl.Cl` [Example 28, N-(3-(S-ethylisothioureido)phenylmethyl)amine dihydrochloride], the “iNOS inhibitory potency compared with the existing NOS inhibitors (L-MIN)” value is reported as “more potent in inhibiting iNOS than L-MIN”.

Same assay, conditions: mean of one to four independent experiments; LPS-treated rat lung crude enzyme; read-out: IC50 value, iNOS (Type 2)
With `N=C(Nc1cccc(CN)c1)N[N+](=O)[O-]` [Example 34, N-(3-(N′-nitroguanidino)phenylmethyl)amine] the IC50 was 6760 nM.

Same assay, conditions: mean of one to four independent experiments; crude enzyme, 100 nM L-[3H]arginine, without CaCl2 and calmodulin; read-out: IC50 value, iNOS (Type 2)
For `CC(N)c1cccc(NC(N)=N[N+](=O)[O-])c1` (centres unmarked) [Example 14, N-(1-(3-(N′-nitroguanidino)phenyl)ethyl)amine hydrochloride], the IC50 was 3680 nM.
For `CCC(N)c1cccc(NC(=N)SC)c1` (centres unmarked) [Example 19, N-(1-(3-(S-methylisothioureido)phenyl)propyl)amine dihydrochloride], the IC50 was 2400 nM.
With `CCC(N)c1cccc(NC(N)=N[N+](=O)[O-])c1` (centres unmarked) [Example 21, N-(1-(3-(N′-nitroguanidino)phenyl)propyl)amine hydrochloride] the IC50 was 2610 nM.
With `CCSC(=N)Nc1cccc(CN)c1.Cl.Cl` [Example 28, N-(3-(S-ethylisothioureido)phenylmethyl)amine dihydrochloride] the IC50 was 32.7 nM.
`CN(C)Cc1cccc(NC(N)=N[N+](=O)[O-])c1` [Example 39, N-(3-(N′-nitroguanidino)phenylmethyl)dimethylamine acetate] gave an IC50 of 22900 nM.
